# Measurements as given in EP1902732A1, “PROPHYLACTIC/THERAPEUTIC AGENT FOR HER2-EXPRESSING CANCER” (Takeda Pharmaceutical Company Limited, priority 2005, dated 2006).
# Key:
# [1] = test system: MDA-MB-231 breast cancer cell; test: Viable cell count using Cell Counting Kit-F; assay type: cell-based; settings: MB231; HER2-nonexpressing cancer; five days of culture
# Procedure: BT-474 breast cancer cell, MDA-MB-453 breast cancer cell, A549 non-small cell lung cancer cell and LNCaP prostate cancer cell were used as human HER2-expressing cells while MDA-MB-231 breast cancer cell and A498 kidney cancer cell (all purchased from ATCC) were used as HER2-nonexpressing cells. Each of the cells used had been seeded into a 96-plate at 500cells/150 µL/well and cultured overnight. Each of the compounds, i.e., antimycin (final concentrations: 1, 0.1, 0.01 and 0.001 µmol/L), 2,4-dinitrophenol (final concentrations: 0.6, 0.2, 0.06 and 0.02 mmol/L), metformin (final concentrations: 25, 5, 1 and 0.2 mmol/L) and AICAR (final concentrations: 25, 5, 1 and 0.2 mmol/L) was diluted with a medium and added for 50 µL/well at a time to the final concentrations mentioned above. Following five days of culture at 37°C in 5% CO2, the cells were counted using Cell Counting Kit-F (Dojindo Laboratories).
# Viable cell count using Cell Counting Kit-F was carried out by the following method according to the attached instruction. The supernatant was removed from the 96-well plate after five days of culture. Cell Counting Kit-F diluted 1000-fold with an RPMI medium (phenol red-free, serum-free) was added for 100 µL/well at a time. After 30 minutes of reaction at room temperature, fluorescence (excitation wavelength; 480 nm, fluorescent wavelength; 530 nm) was determined with a fluorescent plate reader.
# From the determination results, percentage of the fluorescence level in the wells added with the compound was determined assuming that the fluorescence level in the wells without the addition of the compound (control) is 100%, and the remaining cellular quantity was determined in % with respect to that of the control.
# BT-474 breast cancer cell, MDA-MB-453 breast cancer cell and LNCaP prostate cancer cell were used as human HER2-expressing cells while MDA-MB-231 breast cancer cell and A498 kidney cancer cell (all purchased from ATCC) were used as HER2-nonexpressing cells. Each of the cells used had been seeded into a 96-well plate at 500 cells/150 µL/well and cultured overnight. Troglitazone (final concentrations: 25, 6.25 and 1.56 µmol/L) was diluted with a medium, and added for 50 µL/well at a time to the final concentrations mentioned above. Following five days of culture at 37°C in 5% CO2, the cells were counted using Cell Counting Kit-F (Dojindo Laboratories).
# From the determination results, percentage of the fluorescence level in the wells added with troglitazone was determined assuming that the fluorescence level in the wells without the addition of troglitazone (control) is 100%, and the remaining cellular quantity was determined in % with respect to that of the control.
# DU145 = test: Viable cell count using Cell Counting Kit-F; assay type: cell-based; settings: HER2-nonexpressing cancer, five days of culture
# [2] = test system: phosphorylated acetyl-CoA carboxylase (ACC); test: Western blotting of phosphorylated ACC in BT-474 cells; assay type: cell-based, human; settings: Example 7, two hours, antimycin 1-0.01 nmol/L, oligomycin 100-1 ng/mL, 2,4-dinitrophenol 300-3 µmol/L
# Procedure: Human HER2-expressing human breast cancer cell line BT-474 (purchased from American Tissue Culture Collection (ATCC)) was seeded into a 24-multiwell plate (BT-474: 1.2 x 10^5 cells/well) and cultured overnight in a carbon dioxide gas incubator (5% CO2, 37°C). As an energy metabolism inhibitor having a mechanism that differed from that of rotenone, mitochondrial respiratory chain complex III-inhibiting compound antimycin (Wako Pure Chemical Industries) was added to final concentrations of 1, 0.3, 0.1, 0.03 and 0.01 nmol/L while continuing culture. Using another plate, mitochondrial respiratory chain complex V-inhibiting compound oligomycin (Wako Pure Chemical Industries) was added to final concentrations of 100, 30, 10, 3 and 1 ng/mL while continuing culture. In addition, 2,4-dinitrophenol was added to 300, 100, 30, 10 and 3 µmol/L while continuing culture. Two hours after the addition of the agent, the broth was removed and the cells were lysed with an SDS sample buffer (200 µL). Then, this cell lysate was used to perform western blotting analysis. Specifically, this cell lysate (8 µL) was separated by an SDS-PAGE method (gel concentration: 7.5-15%) (Analytical Biochemistry, No. 166, pp. 368-379, 1987) and transferred onto a nitrocellulose membrane (BioRad). Then, an antibody specific to phosphorylated HER2 (Cell signaling technology, Code# 2244), pACC antibody specific to phosphorylated acetyl-CoA carboxylase (ACC) (Cell signaling technology, Code# 3661) and anti-phosphorylated S6K antibody specific to phosphorylated S6 kinase (S6K) (Cell signaling technology, Code# 9209) were used to detect the antibody by chemiluminescent detection with an ECL system (Amersham) to quantify an amount of phosphorylated protein with LAS-1000 plus image analysis device (FUJIFILM).
# Akt = test: Western blotting of phosphorylated Akt in BT-474 cells; assay type: cell-based, human; settings: Example 2, 4-fold dilution series from 1 µmol/L in 5 steps, 2 hours
# Procedure: (§1) Human HER2-expressing human breast cancer cell line BT-474 (purchased from American Tissue Culture Collection (ATCC)) was seeded into a 24-multiwell plate (BT-474: 1.2 x 10^5 cells/well), and cultured overnight in a carbon dioxide gas incubator (5% CO2, 37°C). A 4-fold dilution series of a mitochondrial respiratory chain complex inhibiting compound (complex I: rotenone, complex III: antimycin, complex V: oligomycin: Wako Pure Chemical Industries) was added starting from a final concentration of 1 µmol/L in 5 steps while continuing culture. After 2 hours, the broth was removed, and the cells were lysed with an SDS sample buffer (200 µL). Western blotting analysis was performed as follows. Specifically, this cell lysate (8 µL) was separated by an SDS-PAGE method (gel concentration: 7.5-15%) (Analytical Biochemistry, No. 166, pp. 368-379, 1987), and transferred to a nitrocellulose membrane (BioRad). Then, an antibody specific to phosphorylated HER2 (Cell signaling technology, Code# 2244), an anti-phosphorylated Akt antibody specific to downstream antiapoptotic signal transducing molecule Akt (Cell signaling technology, Code# 9271) and an anti-phosphorylated MAPK antibody specific to downstream proliferation signal transducing molecule MAPK (Cell signaling technology, Code# 9101) were used to detect the antibody with an ECL system (Amersham) to quantify the amount of phosphorylated protein by an image analysis.
# (§2) Human HER2-expressing human cancer cell line BT-474 (purchased from ATCC) was seeded into a 24-multiwell plate (1.2 x 10^5 cells/well) and cultured overnight in a carbon dioxide gas incubator (20% O2, 5% CO2, 37°C). A 3-fold dilution series of metformin that activates AMPK (The Journal of Biological Chemistry, Vol. 279, No. 42, pp. 43940-43951, 2004) was added starting from a final concentration of 15 mmol/L in 5 steps while continuing culture. Two hours later, the broth was removed and the cells were lysed with an SDS sample buffer (200 µL). This cell lysate (8 µL) was separated by an SDS-PAGE method (gel concentration: 7.5-15%) (Analytical Biochemistry, No. 166, pp. 368-379, 1987). Then, western blotting analysis was performed in the same manner as in Example 1 to quantify phosphorylated HER2, phosphorylated Akt and phosphorylated MAPK.
# MAPK = test: Western blotting of phosphorylated MAPK in BT-474 cells; assay type: cell-based, human; settings: Example 2, 4-fold dilution series from 1 µmol/L in 5 steps, 2 hours
# Procedure: as §1, §2
Molecule,minimum concentrations for inhibiting cell proliferation for 50% or more [1],minimum concentrations for inhibiting cell proliferation for 50% or more (DU145),phosphorylation of ACC [2],Akt phosphorylation (Akt),MAPK phosphorylation (MAPK)
"O=[N+]([O-])c1ccc(O)c([N+](=O)[O-])c1 [2,4-dinitrophenol]",0.2 mmol/L,0.067 mmol/L,increased dose-dependently,–,–
antimycin,1e-05 mmol/L,>0.0001 mmol/L,increased dose-dependently,suppressions of Akt and MAPK phosphorylations were also confirmed,suppressions of Akt and MAPK phosphorylations were also confirmed
